This note sets out measurements from paper PMC9841523 (Journal of Medicinal Chemistry, 2022).

Assay [1] has as its system AR (h) (agonist radioligand). Description: Eurofins Safety Screen 44. The assay is classed as binding, human. The following applies: 10 µM.
For assay [2], the target named is T1, PDE3A (h) (Homo sapiens, UniProt Q14432).
T1 construct: Eurofins (ran the panel)
Description: Eurofins Safety Screen 44. The note with it: read-out: % Inhibition of Control Values. It counts as biochemical.

Assay [3] concerns p-P70S6K Thr389. Nature of the assay: AlphaLISA/MSD analysis of S6K phosphorylation in MDA-MB-468 cells. The assay is classed as cell-based. The note with it: Homo sapiens, MDA-MB-468, read-out: pS6K IC50.
For assay [4], the target named is T2, D1(h) (antagonist radioligand) (Homo sapiens, UniProt P21728).
T2 construct: purchased ActivX Biosciences (KiNativ)
T2 sequence (P21728 whole entry): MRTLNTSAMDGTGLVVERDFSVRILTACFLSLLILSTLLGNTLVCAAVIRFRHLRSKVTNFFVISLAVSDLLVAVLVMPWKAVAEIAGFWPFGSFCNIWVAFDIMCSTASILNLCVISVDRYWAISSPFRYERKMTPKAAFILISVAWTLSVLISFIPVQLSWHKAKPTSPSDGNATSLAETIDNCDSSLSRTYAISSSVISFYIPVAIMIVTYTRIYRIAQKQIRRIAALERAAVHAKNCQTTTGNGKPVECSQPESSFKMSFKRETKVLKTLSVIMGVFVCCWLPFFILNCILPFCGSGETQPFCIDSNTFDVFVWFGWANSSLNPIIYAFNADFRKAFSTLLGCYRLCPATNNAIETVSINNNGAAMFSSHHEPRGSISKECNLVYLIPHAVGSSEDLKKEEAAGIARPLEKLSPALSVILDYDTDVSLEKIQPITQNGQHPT
Nature of the assay: Eurofins Safety Screen 44. It counts as binding. The note with it: read-out: % Inhibition of Control Values.

The target in assay [5] is T3, CB2(h) (agonist radioligand) (Homo sapiens, UniProt P34972).
T3 construct: purchased ActivX Biosciences (KiNativ)
T3 sequence (P34972 whole entry): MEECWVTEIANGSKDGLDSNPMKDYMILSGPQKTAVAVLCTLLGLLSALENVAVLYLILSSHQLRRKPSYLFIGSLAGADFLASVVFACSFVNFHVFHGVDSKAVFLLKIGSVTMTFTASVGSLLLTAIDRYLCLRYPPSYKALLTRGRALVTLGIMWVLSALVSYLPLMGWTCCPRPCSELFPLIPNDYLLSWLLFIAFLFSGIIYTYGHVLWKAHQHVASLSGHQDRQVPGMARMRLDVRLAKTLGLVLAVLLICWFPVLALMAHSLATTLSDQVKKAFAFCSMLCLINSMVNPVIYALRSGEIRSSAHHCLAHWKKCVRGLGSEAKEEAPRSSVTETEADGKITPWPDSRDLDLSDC
Nature of the assay: Eurofins Safety Screen 44. The assay is classed as binding. The following applies: read-out: % Inhibition of Control Values.

Assay [6] addresses T4, dopamine transporter(h) (antagonist radioligand) (Homo sapiens, UniProt Q01959).
T4 construct: Eurofins (ran the panel)
Description: Eurofins Safety Screen 44. The assay is classed as binding. The note with it: read-out: % Inhibition of Control Values.

Assay [7] deals with T5, Lck kinase (h) (Homo sapiens, UniProt P06239).
T5 construct: Eurofins (ran the panel)
Description: Eurofins Safety Screen 44. The assay is classed as biochemical. The note with it: read-out: % Inhibition of Control Values.

Assay [8] has as its system Na+ channel (site 2) (antagonist radioligand). Description: Eurofins Safety Screen 44. The assay is classed as binding. The following applies: 10 µM.
Assay [9] has as its target T6, H2(h) (antagonist radioligand) (Homo sapiens, UniProt P25021).
T6 construct: purchased ActivX Biosciences (KiNativ)
Nature of the assay: Eurofins Safety Screen 44. The note with it: read-out: % Inhibition of Control Values. It counts as binding.

Assay [10] addresses T7, D2S(h) (agonist radioligand) (Homo sapiens, UniProt P14416).
T7 construct: purchased ActivX Biosciences (KiNativ)
Nature of the assay: Eurofins Safety Screen 44. It counts as binding. The note with it: read-out: % Inhibition of Control Values.

The target in assay [11] is T8, MAO-A (antagonist radioligand) (Rattus norvegicus, UniProt P21396).
T8 construct: purchased ActivX Biosciences (KiNativ)
T8 sequence (P21396 whole entry): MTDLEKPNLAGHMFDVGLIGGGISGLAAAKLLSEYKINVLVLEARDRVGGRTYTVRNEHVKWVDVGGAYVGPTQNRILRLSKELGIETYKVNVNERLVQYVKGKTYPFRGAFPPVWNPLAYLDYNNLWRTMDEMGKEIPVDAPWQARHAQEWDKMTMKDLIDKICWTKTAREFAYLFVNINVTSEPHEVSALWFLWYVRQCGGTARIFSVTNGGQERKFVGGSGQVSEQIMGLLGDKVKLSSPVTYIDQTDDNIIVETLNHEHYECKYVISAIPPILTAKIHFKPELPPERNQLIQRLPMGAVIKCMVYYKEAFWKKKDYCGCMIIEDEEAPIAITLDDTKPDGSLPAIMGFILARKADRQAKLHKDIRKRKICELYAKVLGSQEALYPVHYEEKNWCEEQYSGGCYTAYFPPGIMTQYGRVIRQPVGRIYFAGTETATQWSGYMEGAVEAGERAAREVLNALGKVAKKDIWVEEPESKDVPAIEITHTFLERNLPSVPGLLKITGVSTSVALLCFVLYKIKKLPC
Description: Eurofins Safety Screen 44. It counts as binding. The following applies: read-out: % Inhibition of Control Values.

Assay [12] concerns the target T9, ETA(h) (agonist radioligand) (Homo sapiens, UniProt P25101).
T9 construct: purchased ActivX Biosciences (KiNativ)
Description: Eurofins Safety Screen 44. It counts as binding. The note with it: read-out: % Inhibition of Control Values.

The target of assay [13] is T10, β2(h) (antagonist radioligand) (Homo sapiens, UniProt P07550).
T10 construct: purchased ActivX Biosciences (KiNativ)
T10 sequence (P07550 whole entry): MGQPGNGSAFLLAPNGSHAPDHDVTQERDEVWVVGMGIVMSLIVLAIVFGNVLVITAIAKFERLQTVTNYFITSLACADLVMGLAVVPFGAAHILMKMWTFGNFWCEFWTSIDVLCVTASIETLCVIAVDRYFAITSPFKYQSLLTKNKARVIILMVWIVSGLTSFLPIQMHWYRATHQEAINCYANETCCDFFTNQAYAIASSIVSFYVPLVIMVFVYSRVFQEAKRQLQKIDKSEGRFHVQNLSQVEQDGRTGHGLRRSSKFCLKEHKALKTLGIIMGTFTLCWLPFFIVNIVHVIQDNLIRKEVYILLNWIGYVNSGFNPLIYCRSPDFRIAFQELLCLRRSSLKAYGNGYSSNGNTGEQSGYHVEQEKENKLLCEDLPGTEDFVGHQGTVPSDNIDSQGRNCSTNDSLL
Nature of the assay: Eurofins Safety Screen 44. The note with it: read-out: % Inhibition of Control Values. The assay is classed as binding.

For assay [14], the system named is NCI-H2122 NSCLC CDX. Description: NCI-H2122 NSCLC CDX model. The following applies: RMC-6272 10 mg/kg ip once weekly; sotorasib 100 mg/kg po qd; single agents or combination. It counts as in vivo. How it is done:
groups when mean tumor volume reached 400–600 mm 3. Tumor and plasma samples were collected for PK and PD analysis at indicated time points after a single dose of indicated […]
doses. Everolimus was formulated in v/v/v/, 30/5/65 Propylene glycol/Tween 80/H 2O.
NCI-H2122 xenograft studies. Female Balb/c nude mice (Beijing V.R Biotechnology Co. […]
per inoculation. When mean tumor volume reached between 150–200 mm 3, mice were […]
Transcutol/Solutol HS 15/H 2O. Sotorasib (AMG 510) was administered by oral gavage at 100 mg/kg daily and formulated in 2% (w/v) HPMC E-50, 0.5% Tween 80 in 50 mM sodium citrate […]
In vivo pharmacodynamics. Snap frozen tumors collected were homogenized with MSD complete lysis buffer (as prepared according to Meso Scale Discovery kit protocol) using PreCellys Bead Shaker (Bertin Instruments) according to manufacturer's protocol. Phospho-4E-BP1(Thr37/46) Whole Cell Lysate Kit (Meso Scale Discovery) was used to quantify phosphorylation of 4E-BP1 in the tumors according to manufacturer's protocol.
Expression and purification of FKBP12, FRB domain, and RHEB-GTPγS. DNA pET28

For assay [15], the system named is Wnk1, Wnk2, Wnk3. Nature of the assay: KiNativ kinase panel. It counts as cell-based, human. The note with it: 1 μM; MCF-7 Cells; Lys2; DLKCDNIFITGPTGSVK

pIC50: −log10 of the molar value.

T4 sequence (Q01959 whole entry): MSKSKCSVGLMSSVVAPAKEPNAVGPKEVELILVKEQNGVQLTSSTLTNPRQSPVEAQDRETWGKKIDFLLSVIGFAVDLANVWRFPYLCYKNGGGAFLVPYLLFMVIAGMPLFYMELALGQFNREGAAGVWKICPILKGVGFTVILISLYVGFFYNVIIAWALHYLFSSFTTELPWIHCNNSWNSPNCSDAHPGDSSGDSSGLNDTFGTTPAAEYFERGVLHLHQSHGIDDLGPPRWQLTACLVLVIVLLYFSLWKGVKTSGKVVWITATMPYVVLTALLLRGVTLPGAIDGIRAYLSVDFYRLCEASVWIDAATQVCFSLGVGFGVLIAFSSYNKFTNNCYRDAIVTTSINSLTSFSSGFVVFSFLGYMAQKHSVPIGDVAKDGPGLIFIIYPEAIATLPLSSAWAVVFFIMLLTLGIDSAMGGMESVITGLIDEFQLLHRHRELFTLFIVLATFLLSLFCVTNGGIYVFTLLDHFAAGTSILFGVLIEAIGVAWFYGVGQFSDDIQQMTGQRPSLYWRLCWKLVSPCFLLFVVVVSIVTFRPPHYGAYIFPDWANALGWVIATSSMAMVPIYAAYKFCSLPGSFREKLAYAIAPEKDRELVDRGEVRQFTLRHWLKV
T9 sequence (P25101 21-427): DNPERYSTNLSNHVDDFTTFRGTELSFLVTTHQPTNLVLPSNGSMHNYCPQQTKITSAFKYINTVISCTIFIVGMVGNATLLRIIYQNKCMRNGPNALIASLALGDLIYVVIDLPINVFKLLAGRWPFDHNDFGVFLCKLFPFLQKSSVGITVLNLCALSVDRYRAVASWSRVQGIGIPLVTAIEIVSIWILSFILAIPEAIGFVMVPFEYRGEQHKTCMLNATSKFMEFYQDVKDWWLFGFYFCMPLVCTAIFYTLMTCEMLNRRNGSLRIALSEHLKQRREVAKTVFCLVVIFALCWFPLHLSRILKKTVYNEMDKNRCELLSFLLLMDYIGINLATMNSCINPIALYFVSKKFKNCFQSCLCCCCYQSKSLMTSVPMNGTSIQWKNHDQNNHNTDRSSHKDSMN
T6 sequence (P25021 whole entry): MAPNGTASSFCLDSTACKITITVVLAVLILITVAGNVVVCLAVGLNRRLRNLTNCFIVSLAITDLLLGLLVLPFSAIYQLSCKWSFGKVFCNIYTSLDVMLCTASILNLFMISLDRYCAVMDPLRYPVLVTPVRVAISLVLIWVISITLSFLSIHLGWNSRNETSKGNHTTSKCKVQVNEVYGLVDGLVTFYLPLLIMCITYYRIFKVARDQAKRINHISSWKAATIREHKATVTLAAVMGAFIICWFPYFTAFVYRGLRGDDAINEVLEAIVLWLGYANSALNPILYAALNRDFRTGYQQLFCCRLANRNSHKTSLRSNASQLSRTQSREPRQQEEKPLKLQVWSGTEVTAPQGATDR
T1 sequence (Q14432 whole entry): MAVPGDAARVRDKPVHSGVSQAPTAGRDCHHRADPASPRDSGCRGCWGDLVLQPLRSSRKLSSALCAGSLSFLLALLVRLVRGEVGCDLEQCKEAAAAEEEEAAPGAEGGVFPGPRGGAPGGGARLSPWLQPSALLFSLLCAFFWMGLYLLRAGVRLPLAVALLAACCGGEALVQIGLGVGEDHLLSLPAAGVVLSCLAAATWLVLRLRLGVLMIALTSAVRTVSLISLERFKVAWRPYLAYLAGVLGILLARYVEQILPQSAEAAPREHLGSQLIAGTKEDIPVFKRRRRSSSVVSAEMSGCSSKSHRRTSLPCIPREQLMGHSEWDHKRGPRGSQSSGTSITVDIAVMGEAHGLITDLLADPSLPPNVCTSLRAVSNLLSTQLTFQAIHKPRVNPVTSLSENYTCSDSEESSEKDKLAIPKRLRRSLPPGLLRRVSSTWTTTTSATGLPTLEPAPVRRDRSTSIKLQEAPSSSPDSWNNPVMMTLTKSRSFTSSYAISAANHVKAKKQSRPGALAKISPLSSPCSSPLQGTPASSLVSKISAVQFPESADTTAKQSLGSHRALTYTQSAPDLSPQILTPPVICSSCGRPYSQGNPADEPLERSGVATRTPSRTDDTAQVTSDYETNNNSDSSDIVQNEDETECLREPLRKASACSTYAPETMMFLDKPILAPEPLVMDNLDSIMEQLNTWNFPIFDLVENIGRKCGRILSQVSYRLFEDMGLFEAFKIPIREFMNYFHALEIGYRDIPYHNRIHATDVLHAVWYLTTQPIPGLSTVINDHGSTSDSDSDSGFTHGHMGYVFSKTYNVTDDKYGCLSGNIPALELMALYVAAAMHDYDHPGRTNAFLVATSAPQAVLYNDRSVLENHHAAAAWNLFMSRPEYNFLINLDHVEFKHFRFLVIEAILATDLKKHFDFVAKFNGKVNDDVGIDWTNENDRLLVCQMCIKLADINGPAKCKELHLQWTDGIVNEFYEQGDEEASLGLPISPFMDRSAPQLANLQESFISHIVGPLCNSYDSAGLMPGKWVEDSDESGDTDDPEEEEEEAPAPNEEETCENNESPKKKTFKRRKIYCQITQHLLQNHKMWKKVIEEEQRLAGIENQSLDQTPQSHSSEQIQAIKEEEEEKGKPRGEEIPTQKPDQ
T7 sequence (P14416 1-414 isoform P14416-2): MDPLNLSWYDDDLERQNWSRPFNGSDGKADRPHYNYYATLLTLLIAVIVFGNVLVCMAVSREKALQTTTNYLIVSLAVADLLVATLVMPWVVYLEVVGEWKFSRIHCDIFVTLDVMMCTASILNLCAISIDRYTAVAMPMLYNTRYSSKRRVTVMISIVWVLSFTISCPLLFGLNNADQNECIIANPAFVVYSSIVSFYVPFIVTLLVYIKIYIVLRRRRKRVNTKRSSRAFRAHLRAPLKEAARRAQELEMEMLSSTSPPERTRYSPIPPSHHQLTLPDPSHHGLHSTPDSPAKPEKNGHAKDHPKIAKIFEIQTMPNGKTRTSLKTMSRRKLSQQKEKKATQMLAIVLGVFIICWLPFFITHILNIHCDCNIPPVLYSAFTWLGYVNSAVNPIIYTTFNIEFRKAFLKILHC

Turning to `CO[C@H]1C[C@@H]2CC[C@@H](C)[C@@](O)(O2)C(=O)C(=O)N2CCCC[C@H]2C(=O)O[C@H]([C@H](C)C[C@@H]2CC[C@@H](OC(=O)NCCOCCOCCOCCOCCOCCOCCOCCOCCC(=O)N3CCc4cc(Cn5nc(-c6ccc7oc(N)nc7c6)c6c(N)ncnc65)ccc4C3)[C@H](OC)C2)C[C@@H](O)[C@H](C)/C=C(\C)[C@@H](O)[C@@H](OC)C(=O)[C@H](C)C[C@H](C)/C=C/C=C/C=C/1C` [compound 38], the “% Inhibition of Control Values” in assay [1] is on record as -14.9%; in [8], 1.0%. The inhibition at 10 µM in [2] is -47.2%; in assay [4], -0.5%; in assay [5], 0.6%; in [6], -1.5%; in [7] it was 11.3%; in assay [9], -1.1%. Further, the inhibition at 10 µM in assay [10] was 12.2%; in [11], 5.5%; in assay [12], 16.8%; in assay [13], -3.3%. Further, in [3], the pIC50 was 9.85.

Take `CO[C@H]1C[C@@H]2CC[C@@H](C)[C@@](O)(O2)C(=O)C(=O)N2CCCC[C@H]2C(=O)O[C@H]([C@H](C)C[C@@H]2CC[C@@H](OC(=O)NCCOCCOCCOCCOCCOCCOCCOCCOCCC(=O)NCCS(=O)(=O)c3ccc(C(=O)N4CCOc5ccc(-c6ccc(N)nc6)cc5C4)c(C)c3F)[C@H](OC)C2)C[C@@H](O)[C@H](C)/C=C(\C)[C@@H](O)[C@@H](OC)C(=O)[C@H](C)C[C@H](C)/C=C/C=C/C=C/1C` [compound 40]: in assay [14], the “antitumor activity (tumor regressions) in NCI-H2122 CDX model” value is on record as “Neither”. Further, the “KiNativ Kinase Panel Data” value in [15] is listed as -40.3.
